Patent US9101634B2, “Application of 2, 3-dihydro-3-hydroxymethyl-6-amino-[1,4]-benzoxazine in preparation of drugs inducing embryonic stem cells to differentiate to vascular endothelial cells” (SHANDONG UNIVERSITY, priority 2010, dated 2015)
“Also recorded” adds a separate entry of the source.

Tests used:
[1] = system: mouse embryonic stem cells; test: Induction of mouse embryonic stem cells to differentiate to vascular endothelial cells (overall conclusion); format: cell-based; conditions: for differentiation of mouse embryonic stem cells to vascular endothelial cells: five to ten days, differentiation culture medium
Description: Cell biology and molecular biology methods were adopted to study and validate the function of the 2,3-dihydro-3-hydroxymethyl-6-amino-[1,4]-benzoxazine of the invention to induce embryonic stem cells to differentiate to vascular endothelial cells with the following experiments.

[2] = system: vascular endothelial cell marker Flk-1 in embryonic stem cells; test: Detection of vascular endothelial cell marker Flk-1 (immunohistochemistry, laser scanning confocal microscopy); format: cell-based, mouse; conditions: induction for 10 days
Procedure: The embryonic stem cells which were induced with 2,3-dihydro-3-hydroxymethyl-6-amino-[1,4]-benzoxazine with the concentration of 0.5 μM˜40 μM for 5 days and 10 days were evenly grown in 48-well plate and cultured for 24 hours in CO2 incubation chamber at 37° C., after the cells adhered on the wall, immunohistochemistry and laser scanning confocal microscopy were used for observing the expression of endothelial cell markers—Flk-1 The normal group was set: the group was cultured in under the culture condition of differentiation culture medium; solvent control group: the group was cultured after DMSO was added under the culture condition of differentiation culture medium; experimental group: the group was cultured after 2,3-dihydro-3-hydroxymethyl-6-amino-[1,4]-benzoxazine with the concentration of 0.5 μM˜40 μM was added under the culture condition of differentiation culture medium.
The embryonic stem cells were evenly grown in a 48-well plate and cultured for 24 hours with DMEM (high glucose) containing leukemia inhibitory factor, L-glutamine, streptomycin, β-mercaptoethanol, non-essential amino acids, nucleotides and 15% FBS, the waste liquid was discarded after the cells adhered on the wall, and the cells were cleaned with 1×PBS. The normal group was set: the group was cultured under the culture condition that leukemia inhibitory factor was removed; solvent control group: the group was cultured after DMSO was added under the culture condition that leukemia inhibitory factor was removed; experimental group: the group was cultured after 2,3-dihydro-3-hydroxymethyl-6-amino-[1,4]-benzoxazine with the concentration of 0.5 μM, 1 μM, 5 μM, 10 μM, 20 μM, 30 μM and 40 μM was added under the culture condition that leukemia inhibitory factor was removed. The culture conditions: 37° C., CO2 incubator box for cultivation.

embryonic stem cells [3] = test: Detection of in vitro vascularization on Matrigel; format: cell-based, mouse; conditions: cells induced for ten days
Procedure: The embryonic stem cells after induction for ten days were seeded in 24-well cell culture plate paved with Matrigel in advance, the detection culture system was replaced for the cells and placed at 37° C., the cells were cultured at CO2 incubator for 4 hours to 72 hours, and the vascularization conditions were regularly observed. The normal group was set: embryonic stem cells which were cultured for ten days under the culture conditions of differentiation culture medium; solvent control group: embryonic stem cells which were cultured for ten days after DMSO was added under the culture condition of differentiation culture medium. Experimental group: embryonic stem cells which were cultured for ten days after 2,3-dihydro-3-hydroxymethyl-6-amino-[1,4]-benzoxazine was added under the culture condition of differentiation culture medium.
The embryonic stem cells were evenly grown in a 24-well plate according to the density of 2×10^4 cells/well and cultured for 24 hours with DMEM (high glucose) containing leukemia inhibitory factor, L-glutamine, streptomycin, β-mercaptoethanol, non-essential amino acids, nucleotides and 15% FBS, the waste liquid was discarded after the cells adhered on the wall, and the cells were cleaned with 1×PBS. […]

[4] = system: mouse embryonic stem cells; test: Influence on mouse embryonic stem cell morphology (inverted phase contrast microscope); format: cell-based; conditions: ten days
Procedure: The embryonic stem cells were evenly grown in a 24-well plate, a normal group was set after the cells adhered on the wall: the normal group was cultured under the condition of differentiation culture medium (after removal of leukemia inhibitory factor from normal culture medium); solvent control group: the group was cultured after DMSO was added under the culture condition of differentiation culture medium; experimental group: the group was cultured after 2,3-dihydro-3-hydroxymethyl-6-amino-[1,4]-benzoxazine with the concentration of 0.5 μM˜40 μM was added under the culture condition of differentiation culture medium. The culture conditions: 37° C., CO2 incubator box for cultivation. The culture medium should be replaced everyday in a timing mode, the morphological changes were observed under an inverted phase contrast microscope until the tenth day.
The embryonic stem cells were evenly grown in a 24-well plate according to density of 2×10^4 cells/well, DMEM (high glucose) containing leukemia inhibitory factor, L-glutamine, streptomycin, β-mercaptoethanol, non-essential amino acids, nucleotides and 15% […] was used for culturing for 24 hours, the waste liquid was discarded after the cells adhered on the wall, and the cells were cleaned with 1×PBS. A normal group was set: the normal group was cultured under the culture condition that leukemia inhibitory factor was removed; solvent control group: the group was cultured after DMSO was added under the culture condition that leukemia inhibitory factor was removed; experimental group: the group was cultured after 2,3-dihydro-3-hydroxymethyl-6-amino-[1,4]-benzoxazine with the concentration of 0.5 μM, 1 μM, 5 μM, 10 μM, 20 μM, 30 μM and 40 μM was added under the culture condition that leukemia inhibitory factor was removed. The culture conditions: 37° C., CO2 incubator box for cultivation. The culture medium should be replaced everyday in a timing mode, and the cells were continuously cultured for ten days and then were observed under an inverted phase contrast microscope.

embryonic stem cells [5] = test: Function detection of phagocytosis of Dil-Ac-LDL; format: cell-based, mouse; conditions: cells induced for ten days, six hours with Dil-Ac-LDL
Procedure: The embryonic stem cells after induction for ten days were seeded in 24-well paved with gelatin, placed at 37° C., and cultured in CO2 incubator. After the cells adhered on the wall, the Dil-Ac-LDL diluted with medium culture was added into the culture plates, placed at 37° C., and cultured in CO2 incubator for six hours. The normal group was set: embryonic stem cells which were cultured for ten days under the culture condition of differentiation culture medium; Solvent control group: the embryonic stem cells which were cultured for ten days after DMSO was added under the culture condition of differentiation culture medium; experimental group: the embryonic stem cells which were cultured for ten days after 2,3-dihydro-3-hydroxy methyl-6-amino-[1,4]-benzoxazine with the concentration of 0.5 μM˜40 μM was added under the culture condition of differentiation culture medium. […]
The embryonic stem cells were evenly grown in a 24-well plate according to the density of 2×10^4 cells/well and cultured for 24 hours with DMEM (high glucose) containing leukemia inhibitory factor, L-glutamine, streptomycin, β-mercaptoethanol, non-essential amino acids, nucleotides and 15% FBS, the waste liquid was discarded after the cells adhered on the wall, and the cells were cleaned with 1×PBS. […] The conditions of phagocytosing Dil-Ac-LDL were detected with laser confocal microscopy.

[6] = system: vascular endothelial marker CD31 in embryonic stem cells; test: Detection of vascular endothelial cell marker CD31 (Western blot); format: cell-based, mouse; conditions: induction for 10 days
Procedure: The embryonic stem cells induced by 2,3-dihydro-3-hydroxymethyl-6-amino-[1,4]-benzoxazine with the concentration of 0.5 μM˜40 μM for ten days were cracked, and total cellular protein was distilled. The solvent control group was set: the group was cultured after DMSO was added under the culture condition of differentiation culture medium; experimental group: the group was cultured after 2,3-dihydro-3-(hydroxymethyl)-6-Amino-[1,4]-benzoxazine with the concentration of 0.5 μM˜40 μM under the culture condition of differentiation culture medium. The extracted embryonic stem cells were used for Western blot experiment to detect the expression of vascular endothelial marker CD31.
The embryonic stem cells were evenly grown in a 6-well plate according to the density of 2×10^4 cells/well, and cultured for 24 hours with DMEM (high glucose) containing leukemia inhibitory factor, L-glutamine, streptomycin, β-mercaptoethanol, non-essential amino acids, nucleotides and 15% FBS, the waste liquid was discarded after the cells adhered on the wall, and the cells were cleaned with 1×PBS. The normal group was set: the group was cultured under the culture condition that leukemia inhibitory factor was removed; solvent control group: the group was cultured after DMSO was added under the culture condition that leukemia inhibitory factor was removed; experimental group: the group was cultured after 2,3-dihydro-3-hydroxymethyl-6-amino-[1,4]-benzoxazine with the concentration of 0.5 μM, 1 μM, 5 μM, 10 μM, 20 μM, 30 μM and 40 μM was added under the culture condition that leukemia inhibitory factor was removed. The culture conditions: 37° C., CO2 incubator box for cultivation. The culture medium should be replaced everyday, and the cells should be continuously cultured for ten days. The total protein of each group of cells was distilled with cell lysate. The protein samples were denatured for 5 min at 100° C., glue was removed then, the protein was transferred on the PVDF film after completion, the PBS/t solution containing 5% skimmed milk powder was used for sealing for one hour at room temperature. The PBS/t solution containing 3% bovine serum almbumin was used for diluting the primary anti-body (1:5000), and incubated overnight with the PVDF film containing target protein at 4° C. PBS/t was used for dipping the film twice 5 min each time. PBS was used for diluting the secondary antibody (1:5000) and the cells were incubated for one hour at room temperature, the film was dipped with PSB for three times and 5 min each time. ECL chromogenic reagent was evenly coated on the PVDF film containing target protein ad reacted for five minutes, excessive Chromogenic reagent was removed, and the cells were placed together with the film in a dark box for five minutes to finish film colour development.

[7] = 10 μM, listed as 2 3-dihydro-3-hydroxymethyl-6-amino-[1,4]-benzoxazine

Nc1ccc2c(c1)NC(CO)CO2 (centres unmarked) [2,3-dihydro-3-hydroxymethyl-6-amino-[1,4]-benzoxazine]
optimal concentration for inducing differentiation to vascular endothelial cells [1]: 10 µM
differentiation of mouse embryonic stem cells to vascular endothelial cells ([1]; 1 μM˜20 μM): prominently promote differentiation of mouse embryonic stem cells to vascular endothelial cells
differentiation of mouse embryonic stem cells to vascular endothelial cells ([1]; 10 μM): particularly prominent
expression of vascular endothelial cell marker Flk-1 ([2]; 1 μM˜20 μM): increased
expression of vascular endothelial cell marker Flk-1 ([2]; 10 μM): more obvious
expression of vascular endothelial cell marker Flk-1 [2, 7]: stronger Flk-1 expression
formation of vessel-like structures on Matrigel (embryonic stem cells [3]; 10 μM): particularly prominent vessel-like structures; also recorded: prominently form blood vessels in vitro; also recorded: prominently form blood vessels on Matrigel
formation of vessel-like structures on Matrigel (embryonic stem cells [3]; 1˜20 μM): form varying degrees of cavity-like vessel-like structures
cell morphology change to vascular endothelial cell form ([4]; 10 μM, differentiation culture medium without leukemia inhibitory factor): significant changes; also recorded: prominently prompt the embryonic stem cells to show the vascular endothelial form
cell morphology change versus normal and solvent control groups ([4]; 1˜20 μM, differentiation culture medium without leukemia inhibitory factor): changed compared with the cell morphology of the control group; also recorded: changed compared with the cell form of the control group
cell form changes of other treatment groups ([4]; other concentrations of the 0.5 μM˜40 μM range (outside 1˜20 μM)): relatively weak
phagocytosis of Dil-Ac-LDL (embryonic stem cells [5]; 1 μM˜20 μM): can phagocytose Dil-Ac-LDL
phagocytosis of Dil-Ac-LDL (embryonic stem cells [5]; 10 μM): particularly evident; also recorded: prominent effect of phagocytosing Dil-Ac-LDL; also recorded: prominently phagocytose Dil-Ac-LDL
expression of vascular endothelial cell marker CD31 ([6]; 1 μM˜20 μM, versus solvent control, listed as 2 3-dihydro-3-hydroxymethyl-6-amino-[1,4]-benzoxazine): increased
expression of vascular endothelial cell marker CD31 ([6]; 1 μM˜20 μM, versus solvent control, listed as 2,3-dihydro-3-(hydroxymethyl)-6-amino-[1,4]-benzoxazine): increased expression of CD31
expression of vascular endothelial cell marker CD31 ([6]; 10 μM): more significant
expression of vascular endothelial cell marker CD31 [6, 7]: stronger CD31 expression
